According to patent US7462741B2, “Naphthalene compounds” (Les Laboratoires Servier, priority 2006, dated 2008):

Assays:
MT2 receptor = biological target: T1, MT2 receptor (Homo sapiens, UniProt P49286); assay: Melatonin MT2 receptor binding study; details: 2-[125I]-iodomelatonin radioligand, competitive binding in triplicate
T1 sequence (P49286 1-362): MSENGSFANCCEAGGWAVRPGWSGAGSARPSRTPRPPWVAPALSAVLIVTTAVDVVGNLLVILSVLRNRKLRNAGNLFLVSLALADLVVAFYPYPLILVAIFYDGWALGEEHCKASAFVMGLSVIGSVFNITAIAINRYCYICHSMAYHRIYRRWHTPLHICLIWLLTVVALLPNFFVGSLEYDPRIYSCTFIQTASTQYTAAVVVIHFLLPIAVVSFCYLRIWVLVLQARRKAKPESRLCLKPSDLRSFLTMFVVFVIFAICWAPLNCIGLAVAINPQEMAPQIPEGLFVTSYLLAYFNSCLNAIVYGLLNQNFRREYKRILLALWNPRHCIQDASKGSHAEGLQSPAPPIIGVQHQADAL
Protocol: (§1) The MT1 or MT2 receptor binding experiments are carried out using 2-[^125I]-iodomelatonin as reference radioligand. The radioactivity retained is determined using a liquid scintillation counter.
(§2) Competitive binding experiments are then carried out in triplicate using the various test compounds. A range of different concentrations is tested for each compound. The results enable the binding affinities of the compounds tested (Ki) to be determined.

MT1 receptor = MT1 receptor (Homo sapiens, UniProt P48039); assay: Melatonin MT1 receptor binding study; details: 2-[125I]-iodomelatonin radioligand, competitive binding in triplicate
MT1 receptor, sequence (P48039 whole entry): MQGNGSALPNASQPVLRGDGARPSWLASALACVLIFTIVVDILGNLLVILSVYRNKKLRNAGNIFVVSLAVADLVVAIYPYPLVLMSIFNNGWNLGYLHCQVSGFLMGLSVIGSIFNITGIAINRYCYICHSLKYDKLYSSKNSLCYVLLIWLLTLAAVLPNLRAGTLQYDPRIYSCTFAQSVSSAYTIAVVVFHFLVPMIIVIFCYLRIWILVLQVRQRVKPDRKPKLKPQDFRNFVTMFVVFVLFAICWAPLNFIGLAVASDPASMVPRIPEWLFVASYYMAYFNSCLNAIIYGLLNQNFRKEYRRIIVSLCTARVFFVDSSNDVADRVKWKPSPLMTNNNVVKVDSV
Protocol: as §1, §2

Ki (MT2 receptor): 3.2 nM | Ki (MT1 receptor): 1.4 nM
SMILES: CCC(=O)NCC(CO)c1cccc2ccc(OC)cc12 (centres unmarked) [Example 1, N-[3-Hydroxy-2-(7-methoxy-1-naphthyl)propyl]propanamide]
